Measurements: US11173145B2, “Compounds useful as inhibitors of indoleamine 2,3-dioxygenase and/or tryptophan dioxygenase” (Board of Regents, The University of Texas System, priority 2017, dated 2021)

target: T1, IDO1 (Homo sapiens, UniProt P14902); test: IDO1 cell-based assay (HeLa cells, IFNgamma-induced, N-formylkynurenine/L-tryptophan by RFMS); conditions: 10 ng/mL IFNgamma, 24 hours
T1 construct: endogenous in cells; host or cells: HeLa cells (ATCC), IFNgamma-induced
Method in brief: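 HeLa cells stimulated with 10 ng/mL IFNgamma and exposed to compound (0.5% DMSO final) for 24 h at 37 °C. Conditioned media deproteinized, then N-formylkynurenine and L-tryptophan quantified by RapidFire MS with deuterated tryptophan internal standard; IC50 by curve fitting. Viability checked by CellTiter-Glo.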

T1 sequence (P14902 whole entry): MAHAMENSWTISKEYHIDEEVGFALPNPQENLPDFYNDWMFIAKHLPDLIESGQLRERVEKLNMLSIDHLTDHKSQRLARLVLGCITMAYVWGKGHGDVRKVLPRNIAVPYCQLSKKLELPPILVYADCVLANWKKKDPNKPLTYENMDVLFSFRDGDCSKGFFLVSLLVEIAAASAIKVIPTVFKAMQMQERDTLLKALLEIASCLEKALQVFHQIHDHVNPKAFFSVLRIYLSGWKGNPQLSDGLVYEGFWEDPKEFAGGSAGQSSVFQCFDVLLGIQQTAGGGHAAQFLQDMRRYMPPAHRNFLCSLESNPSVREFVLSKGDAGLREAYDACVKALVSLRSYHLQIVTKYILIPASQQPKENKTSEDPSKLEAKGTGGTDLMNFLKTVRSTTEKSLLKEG

IC50 [nM] | Compound
< 200 | CCC(NC(=O)c1ccc(Cl)cc1)[C@H]1[C@@H]2C[C@@H](n3cnc4cc(F)ccc4c3=O)C[C@@H]21 (stereo partly drawn) [Compound 34, 4-chloro-N-(1-((1R,3s,5S,6r)-3-(7-fluoro-4-oxoquinazolin-3(4H)-yl)bicyclo[3.1.0]hexan-6-yl)propyl)benzamide]
< 200 | CC[C@@H](NC(=O)c1ccc(C#N)cc1)[C@H]1[C@@H]2C[C@@H](c3ccnc4ccc(F)cc34)C[C@@H]21 [Compound 277, 4-cyano-N-((R)-1-((1R,3S,5S,6r)-3-(6-fluoroquinolin-4-yl)bicyclo[3.1.0]hexan-6-yl)propyl)benzamide]
< 200 | CC[C@@H](NC(=O)c1ccc(Cl)cc1)[C@H]1[C@@H]2C[C@@H](n3cc(C)cn3)C[C@@H]21 [Compound 330, 4-chloro-N-((R)-1-((1R,3S,5S,6r)-3-(4-methyl-1H-pyrazol-1-yl)bicyclo[3.1.0]hexan-6-yl)propyl)benzamide]
< 200 | CC[C@@H](NC(=O)c1cccc(Cl)c1)[C@H]1[C@@H]2C[C@@H](n3cnc4cc(F)c(F)cc43)C[C@@H]21 [Compound 310, 3-chloro-N-((R)-1-((1R,3S,5S,6r)-3-(5,6-difluoro-1H-benzo[d]imidazol-1-yl)bicyclo[3.1.0]hexan-6-yl)propyl)benzamide]
< 200 | CC(C)(NC(=O)c1ccc(C#N)cc1)C1[C@H]2CC(n3ncc(=O)c4ccccc43)C[C@@H]12 (stereo partly drawn) [Compound 87, 4-cyano-N-(2-((1R,5S)-3-(4-oxocinnolin-1(4H)-yl)bicyclo[3.1.0]hexan-6-yl)propan-2-yl)benzamide]
200 to 2000 | CCC(NC(=O)c1ccc(Cl)cc1)[C@H]1[C@@H]2C[C@@H](Oc3ccc4c(Cl)ccnc4c3)C[C@@H]21 (stereo partly drawn) [Compound 57, 4-chloro-N-(1-((1R,3s,5S,6r)-3-((4-chloroquinolin-7-yl)oxy)bicyclo[3.1.0]hexan-6-yl)propyl)benzamide]
200 to 2000 | CC[C@@H](NC(=O)c1ccc(Cl)cc1)[C@H]1[C@@H]2C[C@@H](C(CO)CO)C[C@@H]21 [Compound 291, 4-chloro-N—((R)-1-((1R,3S,5S,6r)-3-(1,3-dihydroxypropan-2-yl)bicyclo[3.1.0]hexan-6-yl)propyl)benzamide]
< 200 | CC[C@@H](NC(=O)c1ccc(Cl)cc1)[C@H]1[C@@H]2C[C@H](c3ccnc4ccc(F)cc34)C[C@@H]21 [Compound 286, 4-chloro-N-((R)-1-((1R,3R,5S,6r)-3-(6-fluoroquinolin-4-yl)bicyclo[3.1.0]hexan-6-yl)propyl)benzamide]
200 to 2000 | CCC(NC(=O)c1ccc(C#N)cn1)C1C2CC(n3cnc4ccc(F)cc4c3=O)CC21 [Compound 76, 5-cyano-N-(1-((1R,3s,5S,6r)-3-(6-fluoro-4-oxoquinazolin-3(4H)-yl)bicyclo[3.1.0]hexan-6-yl)propyl)picolinamide]
< 200 | C[C@@H](C(=O)Nc1ccc(Cl)cc1)[C@H]1[C@@H]2C[C@@H](n3cnc4cc(F)c(F)cc43)C[C@@H]21 [Compound 298, (R)-N-(4-chlorophenyl)-2-((1R,3S,5S,6r)-3-(5,6-difluoro-1H-benzo[d]imidazol-1-yl)bicyclo[3.1.0]hexan-6-yl)propanamide]
< 200 | CCC(NC(=O)c1ccc(Cl)cc1)[C@H]1[C@@H]2C[C@@H](Oc3cc(F)ccc3F)C[C@@H]21 (stereo partly drawn) [Compound 42, 4-chloro-N-(1-((1R,3s,5S,6r)-3-(2,5-difluorophenoxy)bicyclo[3.1.0]hexan-6-yl)propyl)benzamide]
< 200 | Cc1cccnc1O[C@@H]1C[C@@H]2[C@H](C1)[C@H]2C(C)NC(=O)c1ccc(Cl)cc1 (stereo partly drawn) [Compound 71, 4-chloro-N-(1-((1R,3s,5S,6r)-3-((3-methylpyridin-2-yl)oxy)bicyclo[3.1.0]hexan-6-yl)ethyl)benzamide]
< 200 | CCC(NC(=O)c1ccc(Cl)cc1)[C@H]1[C@@H]2C[C@@H](Oc3cccc(C)n3)C[C@@H]21 (stereo partly drawn) [Compound 40, 4-chloro-N-(1-((1R,3s,5S,6r)-3-((6-methylpyridin-2-yl)oxy)bicyclo[3.1.0]hexan-6-yl)propyl)benzamide]
< 200 | CCC(NC(=O)c1ccc(Cl)cc1)C1C2CC(OCC3CCOCC3)CC21 [Compound 96, 4-chloro-N-(1-((1R,3s,5S,6r)-3-((tetrahydro-2H-pyran-4-yl)methoxy)bicyclo[3.1.0]hexan-6-yl)propyl)benzamide]
< 200 | CC[C@@H](NC(=O)c1ccc(Cl)cc1)[C@H]1[C@@H]2C[C@@H](c3ncnc4ccc(F)cc34)C[C@@H]21 [Compound 279, 4-chloro-N-((R)-1-((1R,3S,5S,6r)-3-(6-fluoroquinazolin-4-yl)bicyclo[3.1.0]hexan-6-yl)propyl)benzamide]
< 200 | CC(NC(=O)c1ccc(C#N)cc1)[C@H]1[C@@H]2C[C@@H](n3cnc4ccc(F)cc4c3=O)C[C@@H]21 (stereo partly drawn) [Compound 108, 4-cyano-N-(1-((1R,3s,5S,6r)-3-(6-fluoro-4-oxoquinazolin-3(4H)-yl)bicyclo[3.1.0]hexan-6-yl)ethyl)benzamide]
< 200 | CCC(NC(=O)c1ccc(Cl)cc1)[C@H]1[C@@H]2C[C@@H](Oc3cc(=O)n(C)c4ccccc34)C[C@@H]21 (stereo partly drawn) [Compound 50, 4-chloro-N-(1-((1R,3s,5S,6r)-3-((1-methyl-2-oxo-1,2-dihydroquinolin-4-yl)oxy)bicyclo[3.1.0]hexan-6-yl)propyl)benzamide]
2000 to 5000 | C[C@@H](NC(=O)c1ccc(Cl)cc1)[C@H]1[C@@H]2C[C@@H](Oc3cc(Cl)ccc3C(=O)O)C[C@@H]21 [Compound 341, 4-chloro-2-(((1R,3S,5S,6r)-6-((R)-1-(4-chlorobenzamido)ethyl)bicyclo[3.1.0]hexan-3-yl)oxy)benzoic acid]
200 to 2000 | CC[C@@H](NC(=O)c1ccc(Cl)cc1)[C@H]1[C@@H]2C[C@@H](n3cc(C(=O)O)cn3)C[C@@H]21 [Compound 328, 1-((1R,3S,5S,6r)-6-((R)-1-(4-chlorobenzamido)propyl)bicyclo[3.1.0]hexan-3-yl)-1H-pyrazole-4-carboxylic acid]
< 200 | CCC(NC(=O)c1ccc(Cl)cc1)[C@H]1[C@@H]2C[C@@H](Oc3cnnc4ccccc34)C[C@@H]21 (stereo partly drawn) [Compound 138, 4-chloro-N-(1-((1R,3r,5S,6r)-3-(cinnolin-4-yloxy)bicyclo[3.1.0]hexan-6-yl)propyl)benzamide]
200 to 2000 | CCC(NC(=O)c1ccc(Cl)cc1)[C@H]1[C@@H]2C=CC[C@@H]21 (stereo partly drawn) [Compound 113, N-(1-((1R,5S,6R)-bicyclo[3.1.0]hex-2-en-6-yl)propyl)-4-chlorobenzamide]
< 200 | CC[C@@H](NC(=O)Nc1ccc(Cl)c(F)c1)[C@H]1[C@@H]2C[C@@H](n3cnc4cc(F)c(F)cc43)C[C@@H]21 [Compound 349, 1-(4-chloro-3-fluorophenyl)-3-((R)-1-((1R,3S,5S,6r)-3-(5,6-difluoro-1H-benzo[d]imidazol-1-yl)bicyclo[3.1.0]hexan-6-yl)propyl)urea]

Compound | IC50 [nM]
CC[C@H](NC(=O)c1ccc(Cl)cc1)[C@H]1[C@@H]2C[C@@H](Oc3cnnc4ccccc34)C[C@@H]21 [Compound 103, 4-chloro-N-((S)-1-((1R,3R,5S,6r)-3-(cinnolin-4-yloxy)bicyclo[3.1.0]hexan-6-yl)propyl)benzamide] | < 200
